Our source for the IC50 values is patent publication US20260159512A1, “BCAT2 INHIBITORS” (AGIOS PHARMACEUTICALS, INC., priority 2021, published 2026).

Common to all, as to details: average where tested multiple times
Test [1] deals with T1, hBCAT1 (Homo sapiens, UniProt P54687).
T1 sequence (P54687 1-386): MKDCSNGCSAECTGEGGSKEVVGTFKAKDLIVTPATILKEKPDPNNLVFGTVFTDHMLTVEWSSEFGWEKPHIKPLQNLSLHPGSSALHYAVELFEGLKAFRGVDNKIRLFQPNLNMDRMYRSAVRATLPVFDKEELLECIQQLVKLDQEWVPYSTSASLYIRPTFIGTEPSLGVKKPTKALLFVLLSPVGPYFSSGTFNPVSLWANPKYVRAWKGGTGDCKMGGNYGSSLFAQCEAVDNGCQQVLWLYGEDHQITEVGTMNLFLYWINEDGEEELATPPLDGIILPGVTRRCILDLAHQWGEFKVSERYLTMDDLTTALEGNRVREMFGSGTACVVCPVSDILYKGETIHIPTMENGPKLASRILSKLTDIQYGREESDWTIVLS
The experiment in a line: BCAT1 in vitro enzyme inhibition assay (resazurin/diaphorase-coupled fluorescence). In kind it is biochemical. A digest of the protocol:
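Human BCAT1 activity read by resazurin/diaphorase-coupled fluorescence. Compounds added from 50× DMSO stocks at 1:50, giving 10-point 3-fold titrations from 100 μM top final concentration. Run in technical duplicate; repeat tests averaged.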

Test [2] addresses T2, BCAT2 (Homo sapiens, UniProt O15382).
T2 sequence (O15382 28-392): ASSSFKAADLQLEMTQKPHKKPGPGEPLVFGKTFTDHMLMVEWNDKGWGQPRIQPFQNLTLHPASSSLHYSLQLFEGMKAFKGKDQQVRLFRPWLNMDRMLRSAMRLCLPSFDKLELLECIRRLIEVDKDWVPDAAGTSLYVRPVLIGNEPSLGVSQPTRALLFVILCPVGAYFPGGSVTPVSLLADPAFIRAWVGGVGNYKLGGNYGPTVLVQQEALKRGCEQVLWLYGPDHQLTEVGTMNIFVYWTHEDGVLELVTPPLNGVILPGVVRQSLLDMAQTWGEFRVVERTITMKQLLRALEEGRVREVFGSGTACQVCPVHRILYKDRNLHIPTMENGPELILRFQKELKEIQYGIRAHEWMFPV
As to the kind of experiment: BCAT2 in vitro cell inhibition using engineered A549 cells (KMV cell assay, 13C6-KMV by LC-MS/MS). Format: cell-based. On the set-up: The result was an engineered A549 cell line that expressed endogenous BCAT2; endogenous in cells; host or cells: A549 cells with MUT and BCAT1 knocked out by CRISPR/CAS9.

The target of test [3] is T2, BCAT2. As to the kind of experiment: BCAT2 in vitro enzyme inhibition assay (resazurin/diaphorase-coupled fluorescence). Format: biochemical. A digest of the protocol:
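Coupled fluorescence readout: glutamate formed from L-leucine/α-ketoglutarate transamination drives GDH/NAD/diaphorase reduction of resazurin (Ex 540/Em 590). Human BCAT2 was first exposed 1 h at room temperature to compound, top final 100 μM in 3-fold, 10-point series; substrate reaction ran 1 h before SDS quench, in technical duplicate with DMSO max and enzyme-free min controls.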

Several values for one entry are separate records, joined by “and”; a condition that tells them apart may be missing. Identical values can stand only once. Bounds are passed on as bounds.

As for `O=C(N[C@H]1CCC[C@@H](n2c(-c3ccccc3F)nc3cnc(-c4ncco4)cc32)C1)c1ccc(Br)s1` [Example 7, 5-bromo-N-((1S,3R)-3-(2-(2-fluorophenyl)-6-(oxazol-2-yl)-1H-imidazo[4,5-c]pyridin-1-yl)cyclohexyl)thiophene-2-carboxamide], the IC50 (commonly the concentration that inhibits the measured activity by half) is below 500 nM in test [1], at most 100 nM in test [2] and at most 100 nM in test [3].
Regarding `C#Cc1cnc(C(=O)N[C@H]2CCC[C@@H](n3c(-c4ccccc4F)nc4cnc(-c5ncco5)cc43)C2)s1` [Example 8, 5-ethynyl-N-((1S,3R)-3-(2-(2-fluorophenyl)-6-(oxazol-2-yl)-1H-imidazo[4,5-c]pyridin-1-yl)cyclohexyl)thiazole-2-carboxamide], the values for the concentration for half-maximal inhibition (IC50) in test [1], in test [2] and in test [3] were below 500 nM, at most 100 nM and at most 100 nM, respectively.
With `O=C(N[C@H]1CCC[C@@H](n2c(-c3ccccn3)nc3cnc(-n4cncn4)cc32)C1)c1ccc(Br)s1` [Example 9, 5-bromo-N-((1S,3R)-3-(2-(pyridin-2-yl)-6-(1H-1,2,4-triazol-1-yl)-1H-imidazo[4,5-c]pyridin-1-yl)cyclohexyl)thiophene-2-carboxamide], the IC50 was 500 to 1000 nM in test [1]; ≤ 100 nM and 100 to 500 nM in test [2]; at most 100 nM in test [3].
Take `O=C(N[C@H]1CCC[C@@H](n2c(-c3ccccn3)nc3cnc(-n4ccnn4)cc32)C1)c1ccc(Br)s1` [Example 10, 5-bromo-N-((1S,3R)-3-(2-(pyridin-2-yl)-6-(1H-1,2,3-triazol-1-yl)-1H-imidazo[4,5-c]pyridin-1-yl)cyclohexyl)thiophene-2-carboxamide]: the figures for the IC50 in test [1], in test [2] and in test [3] were 1000 to 5000 nM, 500 to 1000 nM and at most 100 nM, respectively.
The matching figures for `O=C(N[C@H]1CCC[C@@H](n2c(-c3ccccn3)nc3cnc(-n4nccn4)cc32)C1)c1ccc(Br)s1` [Example 11, 5-bromo-N-((1S,3R)-3-(2-(pyridin-2-yl)-6-(2H-1,2,3-triazol-2-yl)-1H-imidazo[4,5-c]pyridin-1-yl)cyclohexyl)thiophene-2-carboxamide]: below 500 nM, at most 100 nM and at most 100 nM.
As for `O=C(N[C@H]1CCC[C@@H](n2c(-c3ncccc3F)nc3cnc(-n4ccnn4)cc32)C1)c1ccc(Br)s1` [Example 12, 5-bromo-N-((1S,3R)-3-(2-(3-fluoropyridin-2-yl)-6-(1H-1,2,3-triazol-1-yl)-1H-imidazo[4,5-c]pyridin-1-yl)cyclohexyl)thiophene-2-carboxamide], the IC50 was below 500 nM in test [1], 100 to 500 nM in test [2] and at most 100 nM in test [3].
The matching figures for `O=C(N[C@H]1CCC[C@@H](n2c(-c3ncccc3F)nc3cnc(-n4nccn4)cc32)C1)c1ccc(Br)s1` [Example 13, 5-bromo-N-((1S,3R)-3-(2-(3-fluoropyridin-2-yl)-6-(2H-1,2,3-triazol-2-yl)-1H-imidazo[4,5-c]pyridin-1-yl)cyclohexyl)thiophene-2-carboxamide]: below 500 nM, at most 100 nM and at most 100 nM.
The like results for `O=C(N[C@H]1CCC[C@@H](n2c(-c3ccccc3F)nc3cnc(-n4ccnn4)cc32)C1)c1ccc(Br)s1` [Example 14, 5-bromo-N-((1S,3R)-3-(2-(2-fluorophenyl)-6-(1H-1,2,3-triazol-1-yl)-1H-imidazo[4,5-c]pyridin-1-yl)cyclohexyl)thiophene-2-carboxamide] were, in that order, below 500 nM, at most 100 nM and at most 100 nM.
The matching figures for `O=C(N[C@H]1CCC[C@@H](n2c(-c3ccccc3F)nc3cnc(-n4nccn4)cc32)C1)c1ccc(Br)s1` [Example 15, 5-bromo-N-((1S,3R)-3-(2-(2-fluorophenyl)-6-(2H-1,2,3-triazol-2-yl)-1H-imidazo[4,5-c]pyridin-1-yl)cyclohexyl)thiophene-2-carboxamide]: below 500 nM, at most 100 nM and at most 100 nM.
Consider `O=C(N[C@H]1CCC[C@@H](n2c(-c3ncccc3F)nc3cnc(-n4cncn4)cc32)C1)c1ccc(Br)s1` [Example 16, 5-bromo-N-((1S,3R)-3-(2-(3-fluoropyridin-2-yl)-6-(1H-1,2,4-triazol-1-yl)-1H-imidazo[4,5-c]pyridin-1-yl)cyclohexyl)thiophene-2-carboxamide], for which the values for the IC50 in test [1], in test [2] and in test [3] were below 500 nM, at most 100 nM and at most 100 nM, respectively.
Regarding `Cc1cnc(-c2cc3c(cn2)nc(-c2ccccn2)n3[C@@H]2CCC[C@H](NC(=O)c3ccc(Br)s3)C2)o1` [Example 18, 5-bromo-N-((1S,3R)-3-(6-(5-methyloxazol-2-yl)-2-(pyridin-2-yl)-1H-imidazo[4,5-c]pyridin-1-yl)cyclohexyl)thiophene-2-carboxamide], the IC50 in test [1] is below 500 nM; in test [2], at most 100 nM; in test [3], at most 100 nM.
In the case of `O=C(N[C@H]1CCC[C@@H](n2c(-c3ccccn3)nc3cnc(-n4nccn4)cc32)C1)c1ncc(Br)s1` [Example 19, 5-bromo-N-((1S,3R)-3-(2-(pyridin-2-yl)-6-(2H-1,2,3-triazol-2-yl)-1H-imidazo[4,5-c]pyridin-1-yl)cyclohexyl)thiazole-2-carboxamide], the IC50 in test [1] was below 500 nM; in test [2] it was at most 100 nM; in test [3], at most 100 nM.
As for `C#Cc1cnc(C(=O)N[C@H]2CCC[C@@H](n3c(-c4ccccn4)nc4cnc(-n5nccn5)cc43)C2)s1` [Example 20, 5-ethynyl-N-((1S,3R)-3-(2-(pyridin-2-yl)-6-(2H-1,2,3-triazol-2-yl)-1H-imidazo[4,5-c]pyridin-1-yl)cyclohexyl)thiazole-2-carboxamide], the IC50 was below 500 nM in test [1], at most 100 nM in test [2] and at most 100 nM in test [3].
With `O=C(N[C@H]1CCC[C@@H](n2c(-c3ccccn3)nc3cnc(-n4nccn4)cc32)C1)c1ncc(C(F)F)s1` [Example 21, 5-(difluoromethyl)-N-((1S,3R)-3-(2-(pyridin-2-yl)-6-(2H-1,2,3-triazol-2-yl)-1H-imidazo[4,5-c]pyridin-1-yl)cyclohexyl)thiazole-2-carboxamide], the IC50 in test [1] is 500 to 1000 nM; in test [2] it was 100 to 500 nM; in test [3], at most 100 nM.
Regarding `O=C(N[C@H]1CCC[C@@H](n2c(-c3ncccc3F)nc3cnc(-n4nccn4)cc32)C1)c1ncc(Br)s1` [Example 22, 5-bromo-N-((1S,3R)-3-(2-(3-fluoropyridin-2-yl)-6-(2H-1,2,3-triazol-2-yl)-1H-imidazo[4,5-c]pyridin-1-yl)cyclohexyl)thiazole-2-carboxamide], the IC50 was below 500 nM in test [1], at most 100 nM in test [2] and at most 100 nM in test [3].
With `C#Cc1cnc(C(=O)N[C@H]2CCC[C@@H](n3c(-c4ncccc4F)nc4cnc(-n5nccn5)cc43)C2)s1` [Example 23, 5-ethynyl-N-((1S,3R)-3-(2-(3-fluoropyridin-2-yl)-6-(2H-1,2,3-triazol-2-yl)-1H-imidazo[4,5-c]pyridin-1-yl)cyclohexyl)thiazole-2-carboxamide], the IC50 is below 500 nM in test [1], at most 100 nM in test [2] and at most 100 nM in test [3].
Take `O=C(N[C@H]1CCC[C@@H](n2c(-c3ncccc3F)nc3cnc(-n4nccn4)cc32)C1)c1ncc(C(F)F)s1` [Example 24, 5-(difluoromethyl)-N-((1S,3R)-3-(2-(3-fluoropyridin-2-yl)-6-(2H-1,2,3-triazol-2-yl)-1H-imidazo[4,5-c]pyridin-1-yl)cyclohexyl)thiazole-2-carboxamide]: the IC50 was below 500 nM in test [1], at most 100 nM in test [2] and at most 100 nM in test [3].
